Consider 33 compounds from patent publication US20070078263A1, “BIARYL SUBSTITUTED HETEROCYCLE INHIBITORS OF LTA4H FOR TREATING INFLAMMATION” (deCODE Chemistry, Inc., priority 2005, published 2007).

Counter-ions that a name gives are not always drawn.

The target of one test is T1, human LTA4 hydrolase (Homo sapiens, UniProt P09960).
T1 construct: A human LTA4 hydrolase full-length cDNA clone (NM 000895) was purchased; His tag (6xHis of vector pDEST17); made in house; host or cells: Escherichia coli BL21-AI
T1 sequence (P09960 1-611): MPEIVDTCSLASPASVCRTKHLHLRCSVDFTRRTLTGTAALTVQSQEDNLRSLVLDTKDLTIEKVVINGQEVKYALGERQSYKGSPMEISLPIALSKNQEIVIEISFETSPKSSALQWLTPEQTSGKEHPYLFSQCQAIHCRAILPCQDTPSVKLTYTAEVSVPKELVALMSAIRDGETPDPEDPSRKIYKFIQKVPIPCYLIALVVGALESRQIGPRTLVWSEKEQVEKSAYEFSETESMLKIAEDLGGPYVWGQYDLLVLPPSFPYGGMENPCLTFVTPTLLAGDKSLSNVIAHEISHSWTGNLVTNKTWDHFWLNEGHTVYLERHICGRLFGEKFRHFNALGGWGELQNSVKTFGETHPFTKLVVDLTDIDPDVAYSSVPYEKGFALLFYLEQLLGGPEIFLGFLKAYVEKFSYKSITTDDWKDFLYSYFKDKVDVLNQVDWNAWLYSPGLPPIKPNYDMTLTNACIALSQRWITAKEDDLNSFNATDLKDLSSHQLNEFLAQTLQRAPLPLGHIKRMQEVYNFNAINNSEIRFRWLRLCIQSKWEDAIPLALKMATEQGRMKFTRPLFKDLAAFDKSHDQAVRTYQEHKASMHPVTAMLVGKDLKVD
The test can be described thus: In vitro assay testing inhibitory activity against purified recombinant human LTA4 hydrolase (LTB4 formed, LC-MS/MS).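 Further: 200 nM enzyme preincubated 10 min at room temperature with serial inhibitor dilutions in pH 8.0 Tris buffer with BSA and 10% DMSO, then 2 µM LTA4 added.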 It counts as biochemical.
Details: not given
As for `O=C(O)CCCN1CCCC[C@@H]1COc1ccc(Oc2ccc(Cl)cc2)cc1` [Example 81, 4-{(R)-2-[4-(4-Chloro-phenoxy)-phenoxymethyl]-piperidin-1-yl}-butyric acid hydrochloride], the IC50 is less than 5 µM.

Still in this test, the particulars now being: recombinant human LTA4 hydrolase 200 nM, LTA4 2 μM; read-out: AvgIC50.
For `O=C(O)CN1CCCC[C@H]1COc1ccc(Oc2ccc(Cl)cc2)cc1` [Example 62, {(S)-2-[4-(4-Chloro-phenoxy)-phenoxymethyl]-piperidin-1-yl}-acetic acid hydrochloride], the IC50 is less than 5 µM.
As for `Clc1ccc2nc(Oc3ccc(OC[C@H]4CCCN4)cc3)sc2c1` [Example 101, (R)-2-[4-(6-Chloro-benzothiazol-2-yloxy)-phenoxymethyl]-pyrrolidine-Hydrogen chloride salt], the IC50 is less than 5 µM.
On the same count and under the same terms, for `c1ccc(Cc2ccc(-c3ccc(OC[C@H]4CCCN4)cc3)s2)cc1` [Example 170, (R)-2-[4-(5-Benzyl-thiophen-2-yl)-phenoxymethyl]-pyrrolidine] the value was less than 5 µM.
In the case of `c1ccc(Oc2ccc(OCC3CNCCN3)cc2)cc1` (stereo not drawn) [Example 76, dihydrochloride], the IC50 is less than 5 µM.
As for `Cc1ccc(Oc2ccc(OC[C@@H]3CCCN3)cc2)cc1` [compound 37], the IC50 is less than 5 µM.
On the same count and under the same terms, for `c1ccc(CO[C@H]2CN[C@H](COc3ccc(Oc4ccccc4)cc3)C2)cc1` [Example 85] the value was 5 to 20 µM; for `Clc1ccc(COc2ccc(OC[C@H]3CCCN3)cc2)cc1` [Example 94, (R)-2-[4-(4-Chloro-benzyloxy)-phenoxymethyl]-pyrrolidine Hydrogen chloride salt], less than 5 µM; for `c1ncn(-c2ccc(Oc3ccc(OC[C@H]4CCCN4)cc3)cc2)n1` [Example 153, 1-{4-[4-((R)-1-Pyrrolidin-2-ylmethoxy)-phenoxy]-phenyl}-1H-[1,2,4]triazole hydrochloride salt], less than 5 µM.
Still for that read-out and setting: the figure for `O=C(O)CCCN1CCC[C@@H]1COc1ccc(-c2ccc(Cc3ccccc3)s2)cc1` [Example 171, 4-{(R)-2-[4-(5-Benzyl-thiophen-2-yl)-phenoxymethyl]-pyrrolidin-1-yl}-butyric acid] is less than 5 µM; for `c1ccc(Cc2ccc(NC[C@H]3CCCN3)cc2)cc1` [Example 41, (4-Benzyl-phenyl)-(R)-1-pyrrolidin-2-ylmethyl-anine] it is less than 5 µM.
On the same count and under the same terms, the figure for `CC(=O)c1ccc(Oc2ccc(OC[C@H]3CCCN3)cc2)cc1` [Example 17, 1-{4-[4-((R)-1-Pyrrolidin-2-ylmethoxy)-phenoxy]-phenyl}-ethanone hydrochloride] is less than 5 µM.
As for `O=C(O)CN1CCC[C@H]1COc1ccc(Cc2ccccc2)cc1` [Example 36, [(S)-2-(4-Benzyl-phenoxymethyl)-pyrrolidin-1-yl]-acetic acid TFA salt], the IC50 was less than 5 µM.
On the same count and under the same terms, for `OCCCCN1CCC[C@H]1COc1ccc(Cc2ccccc2)cc1` [Example 33, 4-[(S)-2-(4-Benzyl-phenoxymethyl)-pyrrolidin-1-yl]-butan-1-ol] the value was less than 5 µM; for `Clc1ccc(Cc2ccc(OCC3CCCCN3)cc2)cc1` (stereo in doubt) [Example 165, (S)-2-[4-(4-Chlorobenzyl)-phenoxymethyl]-piperidine hydrochloride], less than 5 µM; for `O=C(O)CCN1CCC[C@@H]1COc1ccc(Oc2ccc(C(F)(F)F)cc2)cc1` [Example 29, (R)-2-[4-(4-trifluoromethyl-phenoxy)-phenoxymethyl]-pyrrolidine-1-yl}propionic acid sodium salt], less than 5 µM.
With `COc1ccc2nc(Oc3ccc(OC[C@H]4CCCN4)cc3)sc2c1` [Example 102, (R)-2-[4-(6-Methoxy-benzothiazol-2-yloxy)-phenoxymethyl]-pyrrolidine-Hydrogen chloride salt], the IC50 was less than 5 µM.
Take `c1cncc(-c2ccc(Cc3ccc(OC[C@H]4CCCN4)cc3)cc2)c1` [Example 126, 3-{4-[4-((R)-1-Pyrrolidin-2-ylmethoxy)-benzyl]-phenyl}-pyridine]: the IC50 is 5 to 20 µM.
Still for that read-out and setting: the figure for `Clc1cc2c(cc1COc1ccc(OC[C@H]3CCCN3)cc1)OCO2` [Example 98, (R)-2-[4-(6-Chloro-benzo[1,3]dioxol-5-ylmethoxy)phenoxymethyl]pyrrolidine Hydrogen chloride salt] is 20 to 100 µM; for `O=C(O)CN1CCC[C@@H]1COc1ccc(Oc2ccc(Cl)cc2)cc1` [Example 18, {(R)-2-[4-(4-Chloro-phenoxy)-phenoxymethyl]-pyrrolidin-1-yl}-acetic acid hydrochloride] it is less than 5 µM.
On to `c1ccc(Nc2ccc(OC[C@H]3CCCN3)cc2)cc1` [Example 44, Phenyl-[4-((R)-1-pyrrolidin-2-ylmethoxy)-phenyl]-amine], for which the IC50 is less than 5 µM.
Regarding `CC(=O)NCCCN1CCC[C@H]1COc1ccc(Oc2ccc(Cl)cc2)cc1` [Example 38, N-(3-{(S)-2-[4-(4-Chloro-phenoxy)-phenoxymethyl]-pyrrolidin-1-yl}-propyl)-acetamide HCl], the IC50 is less than 5 µM.
Still for that read-out and setting: for `c1ccc(-c2ccc(Cc3ccc(OC[C@H]4CCCN4)cc3)o2)cc1` [Example 163, (R)-2-[4-(5-Phenyl-furan-2-ylmethyl)-phenoxymethyl]-pyrrolidine] the value was less than 5 µM; for `O=C(c1ccc(I)cc1)c1ccc(OC[C@H]2CCCN2)cc1` [Example 127, (4-Iodo-phenyl)-[4-((R)-1-pyrrolidin-2-ylmethoxy)-phenyl]-methanone], 5 to 20 µM.
Still for that read-out and setting: the figure for `c1cc(-c2ccc(Cc3ccc(OC[C@H]4CCCCN4)cc3)cc2)cs1` [Example 78, (R)-2-[4-(4-Thiophen-3-yl-benzyl)-phenoxymethyl]-piperidine hydrochloride] is less than 5 µM; for `FC(F)(F)c1ccc(Oc2ccc(OC[C@@H]3CCCN3)cc2)cc1` [Example 24, (S)-2-[4-(4-trifluoromethyl-phenoxy)-phenoxymethyl]-pyrrolidine] it is less than 5 µM; for `Cc1noc(CCCN2CCC[C@@H]2COc2ccc(Cc3ccccc3)cc2)n1` [Example 31] it is less than 5 µM.
For the compound `COc1cccc(COc2ccc(OC[C@H]3CCCN3)cc2)c1` [Example 97, (R)-2-[4-(3-Methoxy-benzyloxy)-phenoxymethyl]-pyrrolidine Hydrogen chloride salt], the IC50 was 20 to 100 µM.
`O=C1CC[C@@H](COc2ccc(Cc3ccccc3)cc2)N1` [Example 83, (S) 5-(4-Benzyl-phenoxymethyl)-pyrrolidin-2-one hydrochloride salt]: the IC50 was less than 5 µM.
On the same count and under the same terms, the figure for `c1ccc(CN2CCNC(COc3ccc(Oc4ccccc4)cc3)C2)cc1` (stereo not drawn) [Example 75, dihydrochloride] is less than 5 µM; for `c1cc(-c2ccc(Cc3ccc(OC[C@H]4CCCN4)cc3)cc2)ccn1` [Example 125, 4-{4-[4-((R)-1-Pyrrolidin-2-ylmethoxy)-benzyl]-phenyl}-pyridine hydrogen chloride salt] it is 5 to 20 µM.
For the compound `c1cc(OC[C@@H]2CCCN2)ccc1Cc1ccc(N2CCC2)cc1` [Example 124, (S)-2-[4-(4-Azetidin-1-yl-benzyl)-phenoxymethyl]-pyrrolidine hydrogen chloride salt], the IC50 fell in the range of 5 to 20 µM.
Same read-out and setting: for `O=C(O)CCN1CCC[C@@H]1COc1ccc(Oc2ccccn2)cc1` [Example 168, 3-{2-[4-(Pyridin-2-yloxy)-phenoxymethyl]-pyrrolidin-1-yl}-propionic acid] the value was less than 5 µM.
